Measured values published in ChEMBL document CHEMBL1126628, “Design, synthesis, and neurochemical evaluation of 5-(3-alkyl-1,2,4- oxadiazol-5-yl)-1,4,5,6-tetrahydropyrimidines as M1 muscarinic receptor agonists” (J Med Chem, 1993).
pEC50, pIC50: −log10 of the molar value.

Legend:
[1] = molecular target: Muscarinic acetylcholine receptor
Description: Inhibition of [3H]-(R)-QNB binding to muscarinic receptors of rat brain membranes.

Rattus norvegicus [2] = organism: Rattus norvegicus
Description: Ability to stimulate phosphoinositol metabolism was examined in the rat cerebral cortex at 100 uM

Rattus norvegicus [3] = organism: Rattus norvegicus; experiment: Ability to stimulate phosphoinisitol metabolism was examined in the rat hippocampus represented as % maximal stimulation; assay type: functional
Rattus norvegicus [4] = organism: Rattus norvegicus; experiment: cells; settings: Hippocampus
Description: Effective concentration of compound that can stimulate phosphoinositol metabolism in rat hippocampus

Rattus norvegicus [5] = organism: Rattus norvegicus; experiment: cells; settings: Hippocampus; remark: listed apart in the source
Description: Inhibition of the response (stimulation of phosphoinositol metabolism in rat hippocampus) to 10 uM of compound by AF-DX 116

Rattus norvegicus [6] = organism: Rattus norvegicus; experiment: cells; settings: Hippocampus; remark: listed apart in the source
Description: Inhibition of the response (stimulation of phosphoinositol metabolism in rat hippocampus) to 10 uM of compound by pirenzepine

Rattus norvegicus [7] = organism: Rattus norvegicus; experiment: cells; settings: Hippocampus; remark: listed apart in the source
Description: Inhibition of the response (stimulation of phosphoinositol metabolism in rat hippocampus) to 10 uM of compound by p-F-hexahydrosiladifenidol

Rattus norvegicus [8] = organism: Rattus norvegicus; experiment: Ability to stimulate phosphoinisitol metabolism was examined in the rat hippocampus; assay type: functional

Row | Structure (SMILES) | IC50 [1] [nM] | PI (Rattus norvegicus [2]) [%] | also measured
1 | CCCCCCCCc1noc(C2CN=CNC2)n1.O=C(O)C(F)(F)F (configuration not stated) | 530 | 28 | –
2 | Cc1noc(C2CN3CCC2CC3)n1 (configuration not stated) | 350 | 100 | –
3 | Cc1noc(C2CN=CNC2)n1.O=C(O)C(F)(F)F (configuration not stated) | – | 700 | Max stimulation (Rattus norvegicus [3]): 510%; pEC50 (Rattus norvegicus [4]): 5.28; pIC50 (Rattus norvegicus [5]): 5.77; pIC50 (Rattus norvegicus [6]): 7.42; pIC50 (Rattus norvegicus [7]): 5.92
4 | CCc1noc(C2CN=CNC2)n1.O=C(O)C(F)(F)F (configuration not stated) | – | 130 | –
5 | CC(=O)OC1CN2CCC1CC2 (configuration not stated) [ACECLIDINE] | – | 80 | Max stimulation (Rattus norvegicus [8]): 390%; pIC50 (Rattus norvegicus [7]): 7.64
6 | Cc1noc(C2=CCCN(C)C2)n1 | 690 | 50 | –
7 | C[N+](C)(C)CCOC(N)=O.[Cl-] [CARBACHOL] | – | 470 | –
8 | CCCCCCc1noc(C2CN=CNC2)n1.O=C(O)C(F)(F)F (configuration not stated) | 2300 | 4.3 | –
9 | CCCCc1noc(C2CN=CNC2)n1.O=C(O)C(F)(F)F (configuration not stated) | 490 | 61 | –

Further lines, with some results ahead:

Row | IC50 [1] [nM] | Structure (SMILES) | PI (Rattus norvegicus [2]) [%] | also measured
10 | 550 | CCCc1noc(C2CN=CNC2)n1.O=C(O)C(F)(F)F (configuration not stated) | 79 | –
11 | 560 | CCCCCc1noc(C2CN=CNC2)n1.O=C(O)C(F)(F)F (configuration not stated) | 29 | –
12 | 2300 | CCCCCCCc1noc(C2CN=CNC2)n1.O=C(O)C(F)(F)F (configuration not stated) | 34 | –
